This is an account of results in patent publication US20260022142A1, “MACROCYCLIC IMMUNOMODULATORS” (Bristol-Myers Squibb Company, priority 2022, published 2026).

Structures are written as SMILES. Bridge positions count the residues as written; N and C are the ends. Square brackets hold non-standard residues; d marks the D form. Peptide text beside a SMILES is read from it. * marks the point of attachment. ξ: configuration not given here. Phe(4-COOH) = N[C@@H](Cc1ccc(C(=O)O)cc1)C(=O)O; Bip = N[C@@H](Cc1ccc(-c2ccccc2)cc1)C(=O)O; Phe(3-Me) = Cc1cccc(C[C@H](N)C(=O)O)c1; NH(CH2)12COOH = O=C(O)CCCCCCCCCCCCN*; Val(3-OH) = CC(C)(O)[C@H](N)C(=O)O; 4Pal = N[C@@H](Cc1ccncc1)C(=O)O; ξVal(3-OH) = CC(C)(O)C(N)C(=O)O; Cha = N[C@@H](CC1CCCCC1)C(=O)O; Carboxymethyl = O=C(O)C*; Orn = NCCC[C@H](N)C(=O)O; Aun = NCCCCCCCCCCC(=O)O; Dab = NCC[C@H](N)C(=O)O; Nva = CCC[C@H](N)C(=O)O; AEEA = NCCOCCOCC(=O)O

By IC50 is commonly meant the point on the concentration scale where inhibition reaches its midpoint.

T1 sequence (Q15116 25-288): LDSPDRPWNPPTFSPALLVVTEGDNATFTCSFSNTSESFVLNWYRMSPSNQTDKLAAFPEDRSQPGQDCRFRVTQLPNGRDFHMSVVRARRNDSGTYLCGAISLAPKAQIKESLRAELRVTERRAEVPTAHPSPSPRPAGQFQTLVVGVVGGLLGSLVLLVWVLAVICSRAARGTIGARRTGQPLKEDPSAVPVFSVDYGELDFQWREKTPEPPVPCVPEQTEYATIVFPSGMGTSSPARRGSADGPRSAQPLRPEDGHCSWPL

The assay addresses T1, PD-1/PD-L1 interaction (PE-labeled human PD-L1-Ig binding to Jurkat cell line over-expressing human PD-1) (Homo sapiens, UniProt Q15116).
T1 construct: expressed in transfected cells; host or cells: Jurkat
Briefly: Jurkat-PD-1 Cell Binding High-Content Screening Assay (CBA). In kind it is cell-based. The settings on record: Jurkat cell line over-expressing human PD-1; PE-labeled PD-L1-Ig 20 nM final; read-out: Jurkat hPD1-PDL1 IC50. The procedure, abridged: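 Read-out is high-content imaging of cell-bound phycoerythrin-tagged PD-L1-Ig on fixed, Hoechst-counterstained Jurkat cells that over-express human PD-1. Compound exposure lasts 2 h at 37° C before the labeled ligand (20 nM final) is added for a further hour.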
Consider `Cc1cccc(C[C@@H]2NC(=O)[C@H](CC(=O)O)NC(=O)[C@H](Cc3ccc(OCC(=O)O)cc3)NC(=O)[C@H]([C@@H](C)O)NC(=O)CSC[C@@H](C(=O)N[C@@H](CCN)C(=O)NCCOCCOCC(=O)NCCCCCCCCCCC(=O)O)NC(=O)[C@H](CO)NC(=O)[C@H](C(C)(C)O)NC(=O)[C@H](CC3CCCCC3)NC(=O)[C@H](CCN)NC(=O)[C@@H](CC(C)C)NC(=O)[C@H](CCCN)NC(=O)[C@H](Cc3ccc(OCC(=O)O)cc3)NC(=O)[C@H](Cc3ccc(-c4ccccc4)cc3)NC(=O)[C@H](Cc3ccc(OCC(=O)O)cc3)NC2=O)c1` [Compound 2243] ({CH2CO}-TY(Carboxymethyl)D[Phe(3-Me)]Y(Carboxymethyl)[Bip]Y(Carboxymethyl)[Orn][dL][Dab][Cha][Val(3-OH)]SC[Dab][AEEA][Aun]-OH; thioether N-14), for which the IC50 is 1.7 nM. As for `Cc1cccc(C[C@@H]2NC(=O)[C@H](CC(=O)O)NC(=O)[C@H](Cc3ccc(OCC(=O)O)cc3)NC(=O)[C@H](CCCNC(=N)N)NC(=O)CSC[C@@H](C(=O)N[C@@H](CCN)C(=O)NCCOCCOCC(=O)NCCCCCCCCCCC(=O)O)NC(=O)[C@H](CO)NC(=O)[C@H](C(C)(C)O)NC(=O)[C@H](CC3CCCCC3)NC(=O)[C@H](CCN)NC(=O)[C@@H](CC(C)C)NC(=O)[C@H](CCCN)NC(=O)[C@H](Cc3ccc(OCC(=O)O)cc3)NC(=O)[C@H](Cc3ccc(-c4ccccc4)cc3)NC(=O)[C@H](Cc3ccc(OCC(=O)O)cc3)NC2=O)c1` [Compound 2244] ({CH2CO}-RY(Carboxymethyl)D[Phe(3-Me)]Y(Carboxymethyl)[Bip]Y(Carboxymethyl)[Orn][dL][Dab][Cha][Val(3-OH)]SC[Dab][AEEA][Aun]-OH; thioether N-14), the figure is 0.6 nM; as for `Cc1cccc(C[C@@H]2NC(=O)[C@H](CC(=O)O)NC(=O)[C@H](Cc3ccc(O)cc3)NC(=O)[C@H]([C@@H](C)O)NC(=O)CSC[C@@H](C(=O)N[C@@H](CCN)C(=O)NCCOCCOCC(=O)NCCCCCCCCCCC(=O)O)NC(=O)[C@H](CO)NC(=O)[C@H](C(C)(C)O)NC(=O)[C@H](CC3CCCCC3)NC(=O)[C@H](CCN)NC(=O)[C@@H](CC(C)C)NC(=O)[C@H](CCCN)NC(=O)[C@H](Cc3ccc(OCC(=O)O)cc3)NC(=O)[C@H](Cc3ccc(-c4ccccc4)cc3)NC(=O)[C@H](Cc3ccc(OCC(=O)O)cc3)NC2=O)c1` [Compound 2245] ({CH2CO}-TYD[Phe(3-Me)]Y(Carboxymethyl)[Bip]Y(Carboxymethyl)[Orn][dL][Dab][Cha][Val(3-OH)]SC[Dab][AEEA][Aun]-OH; thioether N-14), 1.2 nM; as for `CCC[C@@H]1NC(=O)CSC[C@@H](C(=O)N[C@@H](CCN)C(=O)NCCOCCOCC(=O)NCCCCCCCCCCC(=O)O)NC(=O)[C@H](CO)NC(=O)[C@H](C(C)(C)O)NC(=O)[C@H](CC2CCCCC2)NC(=O)[C@H](CCN)NC(=O)[C@@H](CC(C)C)NC(=O)[C@H](CCCN)NC(=O)[C@H](Cc2ccc(OCC(=O)O)cc2)NC(=O)[C@H](Cc2ccc(-c3ccccc3)cc2)NC(=O)[C@H](Cc2ccc(OCC(=O)O)cc2)NC(=O)[C@H](Cc2cccc(C)c2)NC(=O)[C@H](CC(=O)O)NC(=O)[C@H](Cc2ccc(OCC(=O)O)cc2)NC1=O` [Compound 2246] ({CH2CO}-[Nva]Y(Carboxymethyl)D[Phe(3-Me)]Y(Carboxymethyl)[Bip]Y(Carboxymethyl)[Orn][dL][Dab][Cha][Val(3-OH)]SC[Dab][AEEA][Aun]-OH; thioether N-14), 0.6 nM. As for `CCC[C@@H]1NC(=O)CSC[C@@H](C(=O)N[C@@H](CCN)C(=O)NCCOCCOCC(=O)NCCCCCCCCCCC(=O)O)NC(=O)[C@H](CO)NC(=O)[C@H](C(C)(C)O)NC(=O)[C@H](CC2CCCCC2)NC(=O)[C@H](CCN)NC(=O)[C@@H](CC(C)C)NC(=O)[C@H](CCCN)NC(=O)[C@H](Cc2ccc(OCC(=O)O)cc2)NC(=O)[C@H](Cc2ccc(-c3ccccc3)cc2)NC(=O)[C@H](Cc2ccc(OCC(=O)O)cc2)NC(=O)[C@H](Cc2cccc(C)c2)NC(=O)[C@H](CC(=O)O)NC(=O)[C@H](Cc2ccc(C(=O)O)cc2)NC1=O` [Compound 2247] ({CH2CO}-[Nva][Phe(4-COOH)]D[Phe(3-Me)]Y(Carboxymethyl)[Bip]Y(Carboxymethyl)[Orn][dL][Dab][Cha][Val(3-OH)]SC[Dab][AEEA][Aun]-OH; thioether N-14), the figure is 1.3 nM; as for `Cc1cccc(C[C@@H]2NC(=O)[C@H](CC(=O)O)NC(=O)[C@H](Cc3ccc(O)cc3)NC(=O)[C@H](CCCNC(=N)N)NC(=O)CSC[C@@H](C(=O)N[C@@H](CCN)C(=O)NCCOCCOCC(=O)NCCCCCCCCCCC(=O)O)NC(=O)[C@H](CO)NC(=O)[C@H](C(C)(C)O)NC(=O)[C@H](CC3CCCCC3)NC(=O)[C@H](CCN)NC(=O)[C@@H](CC(C)C)NC(=O)[C@H](CCCN)NC(=O)[C@H](Cc3ccc(OCC(=O)O)cc3)NC(=O)[C@H](Cc3ccc(-c4ccccc4)cc3)NC(=O)[C@H](Cc3ccc(OCC(=O)O)cc3)NC2=O)c1` [Compound 2248] ({CH2CO}-RYD[Phe(3-Me)]Y(Carboxymethyl)[Bip]Y(Carboxymethyl)[Orn][dL][Dab][Cha][Val(3-OH)]SC[Dab][AEEA][Aun]-OH; thioether N-14), 5.1 nM. The value for `Cc1cccc(C[C@@H]2NC(=O)[C@H](CC(=O)O)NC(=O)[C@H](Cc3ccc(OCC(=O)O)cc3)NC(=O)[C@H]([C@@H](C)O)NC(=O)CSC[C@@H](C(=O)N[C@@H](CCN)C(=O)NCCOCCOCC(=O)NCCCCCCCCCCCCC(=O)O)NC(=O)[C@H](CO)NC(=O)[C@H](C(C)(C)O)NC(=O)[C@H](CC3CCCCC3)NC(=O)[C@H](CCN)NC(=O)[C@@H](CC(C)C)NC(=O)[C@H](CCCN)NC(=O)[C@H](Cc3ccc(OCC(=O)O)cc3)NC(=O)[C@H](Cc3ccc(-c4ccccc4)cc3)NC(=O)[C@H](Cc3ccc(OCC(=O)O)cc3)NC2=O)c1` [Compound 2249] ({CH2CO}-TY(Carboxymethyl)D[Phe(3-Me)]Y(Carboxymethyl)[Bip]Y(Carboxymethyl)[Orn][dL][Dab][Cha][Val(3-OH)]SC[Dab][AEEA]-{NH(CH2)12COOH}; thioether N-14) was 16 nM.

`Cc1cccc(C[C@@H]2NC(=O)[C@H](CC(=O)O)NC(=O)[C@H](Cc3ccc(O)cc3)NC(=O)[C@H]([C@@H](C)O)NC(=O)CSC[C@@H](C(=O)N[C@@H](CCN)C(=O)NCCOCCOCC(=O)NCCCCCCCCCCCCC(=O)O)NC(=O)[C@H](CO)NC(=O)[C@H](C(C)(C)O)NC(=O)[C@H](CC3CCCCC3)NC(=O)[C@H](CCN)NC(=O)[C@@H](CC(C)C)NC(=O)[C@H](CCCN)NC(=O)[C@H](Cc3ccc(OCC(=O)O)cc3)NC(=O)[C@H](Cc3ccc(-c4ccccc4)cc3)NC(=O)[C@H](Cc3ccc(OCC(=O)O)cc3)NC2=O)c1` [Compound 2250] ({CH2CO}-TYD[Phe(3-Me)]Y(Carboxymethyl)[Bip]Y(Carboxymethyl)[Orn][dL][Dab][Cha][Val(3-OH)]SC[Dab][AEEA]-{NH(CH2)12COOH}; thioether N-14): the IC50 amounted to 18 nM. As for `Cc1cccc(C[C@@H]2NC(=O)[C@H](CC(=O)O)NC(=O)[C@H](Cc3ccc(OCC(=O)O)cc3)NC(=O)[C@H](Cc3ccncc3)NC(=O)CSC[C@@H](C(=O)N[C@@H](CCN)C(=O)NCCOCCOCC(=O)NCCCCCCCCCCCCC(=O)O)NC(=O)[C@H](CO)NC(=O)[C@H](C(C)(C)O)NC(=O)[C@H](CC3CCCCC3)NC(=O)[C@H](CCN)NC(=O)[C@@H](CC(C)C)NC(=O)[C@H](CCCN)NC(=O)[C@H](Cc3ccc(OCC(=O)O)cc3)NC(=O)[C@H](Cc3ccc(-c4ccccc4)cc3)NC(=O)[C@H](Cc3ccc(OCC(=O)O)cc3)NC2=O)c1` [Compound 2251] ({CH2CO}-[4Pal]Y(Carboxymethyl)D[Phe(3-Me)]Y(Carboxymethyl)[Bip]Y(Carboxymethyl)[Orn][dL][Dab][Cha][Val(3-OH)]SC[Dab][AEEA]-{NH(CH2)12COOH}; thioether N-14), the figure is 10.5 nM; as for `CCC[C@@H]1NC(=O)CSC[C@@H](C(=O)N[C@@H](CCN)C(=O)NCCOCCOCC(=O)NCCCCCCCCCCCCC(=O)O)NC(=O)[C@H](CO)NC(=O)C(C(C)(C)O)NC(=O)[C@H](CC2CCCCC2)NC(=O)[C@H](CCN)NC(=O)[C@@H](CC(C)C)NC(=O)[C@H](CCCN)NC(=O)[C@H](Cc2ccc(OCC(=O)O)cc2)NC(=O)[C@H](Cc2ccc(-c3ccccc3)cc2)NC(=O)[C@H](Cc2ccc(OCC(=O)O)cc2)NC(=O)[C@H](Cc2cccc(C)c2)NC(=O)[C@H](CC(=O)O)NC(=O)[C@H](Cc2ccc(OCC(=O)O)cc2)NC1=O` (stereo partly drawn) [Compound 2252] ({CH2CO}-[Nva]Y(Carboxymethyl)D[Phe(3-Me)]Y(Carboxymethyl)[Bip]Y(Carboxymethyl)[Orn][dL][Dab][Cha][ξVal(3-OH)]SC[Dab][AEEA]-{NH(CH2)12COOH}; thioether N-14), 13.5 nM. The value for `Cc1cccc(C[C@@H]2NC(=O)[C@H](CC(=O)O)NC(=O)[C@H](Cc3ccc(OCC(=O)O)cc3)NC(=O)[C@H](CCCNC(=N)N)NC(=O)CSC[C@@H](C(=O)N[C@@H](CCN)C(=O)NCCOCCOCC(=O)NCCCCCCCCCCCCC(=O)O)NC(=O)[C@H](CO)NC(=O)[C@H](C(C)(C)O)NC(=O)[C@H](CC3CCCCC3)NC(=O)[C@H](CCN)NC(=O)[C@@H](CC(C)C)NC(=O)[C@H](CCCN)NC(=O)[C@H](Cc3ccc(OCC(=O)O)cc3)NC(=O)[C@H](Cc3ccc(-c4ccccc4)cc3)NC(=O)[C@H](Cc3ccc(OCC(=O)O)cc3)NC2=O)c1` [Compound 2253] ({CH2CO}-RY(Carboxymethyl)D[Phe(3-Me)]Y(Carboxymethyl)[Bip]Y(Carboxymethyl)[Orn][dL][Dab][Cha][Val(3-OH)]SC[Dab][AEEA]-{NH(CH2)12COOH}; thioether N-14) was 9.1 nM.
